“Also recorded” adds a separate entry of the source.
Tests used:
[1] = tested on: SALL4 binding to cereblon; assay type: cell-based, human
Protocol: Binding of full length SALL4 to cereblon in cells was then tested by co-immunoprecipitation (see FIG. 3). HA-tagged WT, G416A, or G600A SALL4 was immunoprecipitated from cells, and the level of co-purifying cereblon was assessed by western blot. Briefly, a Lenti-x 293 cell line with a CRISPR-cas9 knock-out of cereblon and stable expression of HA-tagged SALL4 or SALL4 mutants was transfected with either GST-cereblon or empty vector. […] The amount of co-purifying GST-cereblon was then assessed by western blot.

[2] = tested on: SALL4; test: SALL4 immunohistochemistry in rabbit testis; assay type: in vivo; conditions: male rabbits
Protocol: Male New Zealand white rabbits were treated with vehicle (1% Carboxymethylcellulose in deionized water), or Thalidomide at either 30 or 150 mg/kg/day for 56 days to investigate testicular degeneration. Testis were collected 24 hours after the last dose, fixed in 10% NBF, processed, embedded in paraffin and sectioned at 4 microns for immunohistochemistry.
(§1) Rabbit embryos were stained for SALL4, and mouse testis were stained for SALL4 and ZFP91. Immunohistochemistry (IHC) was performed on the Bond-III automated slide stainer (Leica Microsystems, Buffalo Grove, Ill.) using the Bond Polymer Refine Detection system (Leica Microsystems, DS9800). Formalin fixed paraffin embedded (FFPE) tissues were sectioned at four micron thick and deparaffinized on the Bond-Max instrument. Antigen retrieval was performed with Epitope Retrieval 2 (ER2, pH 9.0) for 20 min at 100° C. The slides were blocked for endogenous peroxidase activity with Peroxide Block for 5 minutes at room temperature. Sections were then incubated with the mouse monoclonal anti-SALL4 EE-30 antibody (Santa Cruz, sc-101147) at a 1:100 dilution for 60 min at room temperature, or with the rabbit monoclonal anti-ZFP91 antibody (Celgene custom clone 122-8-6) at 0.25 ug/ml. […]

[3] = target: ZFP91 (Mus musculus, UniProt Q62511); test: ZFP91 immunohistochemistry in huCRBN mouse testis; assay type: in vivo; parameters: from tissue; host or cells: testis of homozygous huCRBN knock-in mice; conditions: huCRBN mice, 1000 mg/kg for 7 days
Protocol: The SALL4 and ZFP91 protein levels were examined by immunohistochemistry in rabbit, wild-type mouse, and humanized cereblon mouse testes. […] HuCRBN Mice were treated for 7 days and testis were collected and examined by immunohistochemistry (n=3 animals per treatment group per species).
as §1, with “ug/ml. For mouse testis, primary antibodies were incubated for 15 min at room temperature, and Post-Primary and horseradish peroxidase (HRP) labeled Polymer were incubated at the instrument's default conditions.” for “ug/ml.”

[4] = tested on: SALL4 mRNA; test: qRT-PCR of SALL4 mRNA in human iPS cells; assay type: cell-based; conditions: 20 μM thalidomide, 16 hours, normalized with GAPDH
Protocol: Quantitative RT-PCR analysis was performed to human iPS cells treated with DMSO or 20 μM thalidomide (THA) for 16 hours. The relative mRNA level of SALL4 and POU5F1(OCT4) was normalized with GAPDH (n=2, biological replicates).
Total RNA was extracted from human iPS cells using RNeasy Mini Kit (Qiagen) according to manufacturer's instruction, and reverse-transcribed into first-strand cDNA with random primer using SuperScript™ IV First-Strand Synthesis System (ThermoFisher). Real-time PCR was performed in triplicate using ViiA 7 Real-Time PCR System with TaqMan Gene Expression Assay probes (ThermoFisher) for SALL4 (#4351372), POU5F1(#4331182) and GAPDH (#4326317E).

Chain of ZFP91 (Q62511 whole entry): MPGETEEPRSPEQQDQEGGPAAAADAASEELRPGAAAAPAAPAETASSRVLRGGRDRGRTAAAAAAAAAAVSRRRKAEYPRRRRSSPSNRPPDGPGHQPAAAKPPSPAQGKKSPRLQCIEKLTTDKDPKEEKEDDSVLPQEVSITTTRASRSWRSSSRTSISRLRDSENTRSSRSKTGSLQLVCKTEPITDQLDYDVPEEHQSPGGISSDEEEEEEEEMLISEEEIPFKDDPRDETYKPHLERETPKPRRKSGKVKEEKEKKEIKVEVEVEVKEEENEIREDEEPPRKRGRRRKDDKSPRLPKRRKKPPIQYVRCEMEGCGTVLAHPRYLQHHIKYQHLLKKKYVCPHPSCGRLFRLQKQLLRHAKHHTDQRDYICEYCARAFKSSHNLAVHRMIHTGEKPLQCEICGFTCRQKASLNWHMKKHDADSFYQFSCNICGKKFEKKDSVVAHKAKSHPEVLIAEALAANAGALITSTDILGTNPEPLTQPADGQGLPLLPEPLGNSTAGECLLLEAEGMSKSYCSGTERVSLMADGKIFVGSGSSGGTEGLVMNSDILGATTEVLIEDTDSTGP
Chain of ZFP91 (Q96SW2 whole entry, further chain): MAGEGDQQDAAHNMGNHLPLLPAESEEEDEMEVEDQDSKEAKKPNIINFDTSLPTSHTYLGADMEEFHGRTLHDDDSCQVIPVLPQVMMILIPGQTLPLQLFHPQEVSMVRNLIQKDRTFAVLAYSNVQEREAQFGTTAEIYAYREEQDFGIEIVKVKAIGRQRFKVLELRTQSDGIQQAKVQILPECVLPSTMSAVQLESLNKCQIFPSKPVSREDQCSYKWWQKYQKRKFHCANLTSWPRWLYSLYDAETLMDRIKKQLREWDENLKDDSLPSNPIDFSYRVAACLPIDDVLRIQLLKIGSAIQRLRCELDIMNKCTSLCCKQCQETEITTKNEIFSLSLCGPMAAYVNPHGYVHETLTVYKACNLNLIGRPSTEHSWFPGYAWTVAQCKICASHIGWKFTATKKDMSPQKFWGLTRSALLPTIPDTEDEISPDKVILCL
Chain of ZFP91 (Q3U1J4 whole entry partner): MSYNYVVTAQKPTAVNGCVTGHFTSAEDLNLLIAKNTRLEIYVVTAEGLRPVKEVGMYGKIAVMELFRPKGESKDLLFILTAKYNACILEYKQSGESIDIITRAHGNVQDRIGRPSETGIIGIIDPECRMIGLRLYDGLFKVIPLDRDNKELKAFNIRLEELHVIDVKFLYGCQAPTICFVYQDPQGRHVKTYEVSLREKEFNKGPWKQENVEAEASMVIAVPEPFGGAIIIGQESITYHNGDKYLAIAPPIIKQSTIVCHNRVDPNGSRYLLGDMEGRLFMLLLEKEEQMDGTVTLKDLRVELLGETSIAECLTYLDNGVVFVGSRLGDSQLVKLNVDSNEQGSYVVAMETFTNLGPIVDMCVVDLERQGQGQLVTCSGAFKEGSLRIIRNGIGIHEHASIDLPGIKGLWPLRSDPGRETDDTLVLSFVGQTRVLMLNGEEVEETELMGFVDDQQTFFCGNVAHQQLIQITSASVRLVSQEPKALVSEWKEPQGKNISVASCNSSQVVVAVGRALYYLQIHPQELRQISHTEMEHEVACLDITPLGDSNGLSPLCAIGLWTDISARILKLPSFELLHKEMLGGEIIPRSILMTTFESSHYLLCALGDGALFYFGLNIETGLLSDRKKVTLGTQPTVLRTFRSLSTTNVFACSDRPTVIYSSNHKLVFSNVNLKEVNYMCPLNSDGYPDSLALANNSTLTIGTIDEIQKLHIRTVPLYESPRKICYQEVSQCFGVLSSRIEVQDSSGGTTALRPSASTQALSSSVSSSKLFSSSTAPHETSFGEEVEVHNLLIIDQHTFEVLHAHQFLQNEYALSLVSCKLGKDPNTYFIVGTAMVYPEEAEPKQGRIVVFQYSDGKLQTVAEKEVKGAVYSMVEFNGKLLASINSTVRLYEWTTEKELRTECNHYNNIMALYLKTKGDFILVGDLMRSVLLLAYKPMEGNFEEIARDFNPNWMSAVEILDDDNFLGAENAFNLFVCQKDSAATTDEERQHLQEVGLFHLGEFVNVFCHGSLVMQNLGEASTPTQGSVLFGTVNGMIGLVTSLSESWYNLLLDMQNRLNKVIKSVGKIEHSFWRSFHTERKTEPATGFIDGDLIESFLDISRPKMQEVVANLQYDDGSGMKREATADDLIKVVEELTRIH

O=C1CCC(N2C(=O)c3ccccc3C2=O)C(=O)N1 (stereo not shown) [thalidomide]
Binding of G416A SALL4 to cereblon ([1]; HA-tagged G416A SALL4, anti-HA pull-down): disrupted the binding significantly
Binding of G600A SALL4 to cereblon ([1]; HA-tagged G600A SALL4, anti-HA pull-down): strong, compound-dependent binding to cereblon
Binding of WT SALL4 to cereblon (co-purifying GST-cereblon, western blot) ([1]; HA-tagged WT SALL4, anti-HA pull-down): strong, compound-dependent binding to cereblon
SALL4 protein levels in testis ([2]; 150 mg/kg/day): marked decrease; also recorded: caused degradation of both ZFP91 and SALL4
SALL4 protein levels in testis, dose dependence ([2]; 30 or 150 mg/kg/day for 56 days): dose-dependent decrease in SALL4 levels in the testis of male rabbits; also recorded: dose-dependent reduction of SALL4 protein levels in the testis; also recorded: dose dependent decrease in SALL4 levels in rabbit testis
ZFP91 protein levels in testis [3]: robustly downregulated; also recorded: caused degradation of ZFP91 but not SALL4
SALL4 mRNA levels [4]: not reduced by thalidomide treatment (FIG. 7E), and are instead increased; also recorded: decrease in SALL4 protein levels is not due to transcriptional downregulation
